According to US12180193B2, “Accelerating fibrosarcoma protein degrading compounds and associated methods of use” (Arvinas Operations, Inc., priority 2020, dated 2024):
Read-outs that look alike come from different tables or passages of the source.

Experiments:
BRAF V600E = target: T1, BRAF V600E (Homo sapiens, UniProt P15056, V600E); assay: Cellular assay of target protein degradation, T-Rex 293 cells stably transfected with HA-BRAF_V600E (HA immunofluorescence, high content imaging); assay type: cell-based
T1 construct: expressed in transfected cells
Summary of the method: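 Read-out is anti-HA immunofluorescence quantified by high-content imaging, giving half-maximal degradation concentration (DC50) and maximum degradation (Dmax, percent of control). Cells expressed the construct under 1 ng/mL doxycycline and received compound (1 μM to 0.1 nM final, 0.1% DMSO) for 24 h at 37 °C.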

BRAF G466V = target: T2, BRAF G466V (Homo sapiens, UniProt P15056, G466V); assay: Cellular assay of target protein degradation, T-Rex 293 cells stably transfected with HA-BRAF G466V (HA immunofluorescence, high content imaging); assay type: cell-based
T2 construct: expressed in transfected cells
Summary of the method: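 First, stably transfected T-Rex 293 cells were plated with 0.75 ng/mL doxycycline and grown for 24 hours. Next, compound (final 30 nM to 3 pM, 0.1% DMSO) was added for another 24 hours at 37° C. Finally, cells were fixed, stained for HA and imaged.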

[1] = half maximal degradation, T-Rex 293 HA-BRAF V600E; read-out: BRaf V600E DC50
[2] = half maximal degradation, T-Rex 293 HA-BRAF G466V; read-out: BRaf G466V DC50
[3] = maximum degradation observed, T-Rex 293 HA-BRAF G466V
[4] = maximum degradation observed, T-Rex 293 HA-BRAF V600E

T2 sequence (P15056 whole entry G466V): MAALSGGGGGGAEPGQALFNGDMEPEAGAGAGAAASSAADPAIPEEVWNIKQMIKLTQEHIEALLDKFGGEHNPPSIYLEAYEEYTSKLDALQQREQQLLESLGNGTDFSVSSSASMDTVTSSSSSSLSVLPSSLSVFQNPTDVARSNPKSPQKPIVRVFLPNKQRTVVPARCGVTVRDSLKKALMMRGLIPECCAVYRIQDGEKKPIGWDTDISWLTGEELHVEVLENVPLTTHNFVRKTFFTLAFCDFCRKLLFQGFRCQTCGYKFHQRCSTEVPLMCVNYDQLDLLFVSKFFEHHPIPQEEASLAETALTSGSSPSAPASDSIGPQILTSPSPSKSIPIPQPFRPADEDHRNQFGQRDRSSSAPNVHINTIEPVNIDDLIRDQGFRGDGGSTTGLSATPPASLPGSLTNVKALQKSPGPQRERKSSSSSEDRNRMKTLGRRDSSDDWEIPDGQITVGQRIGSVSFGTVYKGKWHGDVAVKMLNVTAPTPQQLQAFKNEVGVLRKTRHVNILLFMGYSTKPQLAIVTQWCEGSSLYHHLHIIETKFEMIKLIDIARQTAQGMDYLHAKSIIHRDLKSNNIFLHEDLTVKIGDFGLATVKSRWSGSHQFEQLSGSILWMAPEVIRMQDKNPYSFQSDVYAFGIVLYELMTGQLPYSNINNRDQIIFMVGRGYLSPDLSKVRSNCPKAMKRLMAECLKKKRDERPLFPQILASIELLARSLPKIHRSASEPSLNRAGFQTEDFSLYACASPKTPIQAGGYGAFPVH
T1 sequence (P15056 whole entry V600E): as the sequence (P15056 whole entry G466V) above, with V466G, V600E counted along it

Row | SMILES | DC50 (BRAF V600E; [1]) [nM] | DC50 (BRAF G466V; [2]) [nM] | Dmax (BRAF G466V; [3]) [%] | Dmax (BRAF V600E; [4]) [%] | DC50 (BRAF V600E; read-out: BRaf V600E DC50; half maximal degradation, T-Rex 293 HA-BRAF V600E) [nM] | DC50 (BRAF G466V; read-out: BRaf G466V DC50; half maximal degradation, T-Rex 293 HA-BRAF G466V) [nM]
1 | O=C1CC[C@@H](NC(=O)c2ccc(N3CCC(CN4CC5(C4)CN(c4ccc(-c6cnc7[nH]cc(C(=O)c8c(F)ccc(NS(=O)(=O)N9CC[C@@H](F)C9)c8F)c7c6)cc4)C5)CC3)cc2F)C(=O)N1 [Compound 30, 4-(4-{[6-(4-{3-[2,6-difluoro-3-({[(3R)-3-fluoropyrrolidin-1-yl]sulfonyl}amino)benzoyl]-1H-pyrrolo[2,3-b]pyridin-5-yl}phenyl)-2,6-diazaspiro[3.3]heptan-2-yl]methyl}piperidin-1-yl)-N-[(3R)-2,6-dioxopiperidin-3-yl]-2-fluorobenzamide] | > 500 | 10 to 30 | < 35 | – | – | –
2 | O=C1CC[C@H](NC(=O)c2ccc(N3CC4(CN(CC5CCN(c6ccc(-c7cnc8[nH]cc(C(=O)c9c(F)ccc(NS(=O)(=O)N%10CC[C@@H](F)C%10)c9F)c8c7)cc6)CC5)C4)C3)cc2F)C(=O)N1 [Compound 31, 4-(6-{[1-(4-{3-[2,6-difluoro-3-({[(3R)-3-fluoropyrrolidin-1-yl]sulfonyl}amino)benzoyl]-1H-pyrrolo[2,3-b]pyridin-5-yl}phenyl)piperidin-4-yl]methyl}-2,6-diazaspiro[3.3]heptan-2-yl)-N-[(3S)-2,6-dioxopiperidin-3-yl]-2-fluorobenzamide] | 5 to 50 | < 1 | 35 to 70 | 35 to 70 | – | –
3 | O=C1CC[C@H](NC(=O)c2ccc(C3CCN(CC4CCN(c5ccc(-c6cnc7[nH]cc(C(=O)c8c(F)ccc(NS(=O)(=O)N9CC[C@@H](F)C9)c8F)c7c6)cc5)CC4)CC3)cc2F)C(=O)N1 [Compound 33, 4-(1-{[1-(4-{3-[2,6-difluoro-3-({[(3R)-3-fluoropyrrolidin-1-yl]sulfonyl}amino)benzoyl]-1H-pyrrolo[2,3-b]pyridin-5-yl}phenyl)piperidin-4-yl]methyl}piperidin-4-yl)-N-[(3S)-2,6-dioxopiperidin-3-yl]-2-fluorobenzamide] | 5 to 50 | 1 to 10 | 35 to 70 | > 70 | – | –
4 | O=C1CCC(N2Cc3cc(C4CCN(CC5CCN(c6ccc(-c7cnc8[nH]cc(C(=O)c9c(F)ccc(NS(=O)(=O)N%10CC[C@@H](F)C%10)c9F)c8c7)cc6F)CC5)CC4)ccc3C2=O)C(=O)N1 (stereo partly drawn) [Compound 36, (3R)—N-[3-(5-[4-[4-([4-[2-(2,6-dioxopiperidin-3-yl)-1-oxo-3H-isoindol-5-yl]piperidin-1-yl]methyl)piperidin-1-yl]-3-fluorophenyl]-1H-pyrrolo[2,3-b]pyridine-3-carbonyl)-2,4-difluorophenyl]-3-fluoropyrrolidine-1-sulfonamide] | – | – | 35 to 70 | 35 to 70 | 5 to 50 | < 1
5 | O=C1CC[C@H](N2Cc3cc(/C=C/CN4CC5(C4)CN(c4ccc(-c6cnc7[nH]cc(C(=O)c8c(F)ccc(NS(=O)(=O)N9CC[C@@H](F)C9)c8F)c7c6)cc4)C5)ccc3C2=O)C(=O)N1 [Compound 38, (3R)-N-{3-[5-(4-{6-[(2E)-3-{2-[(3S)-2,6-dioxopiperidin-3-yl]-1-oxo-2,3-dihdyro-1H-isoindol-5-yl}prop-2-en-1-yl]-2,6-diazaspiro[3.3]heptan-2-yl}phenyl)-1H-pyrrolo[2,3-b]pyridine-3-carbonyl]-2,4-difluorophenyl}-3-fluoropyrrolidine-1-sulfonamide] | 5 to 50 | < 1 | 35 to 70 | 35 to 70 | – | –
6 | O=C1CC[C@@H](N2Cc3cc(/C=C/CN4CC5(C4)CN(c4ccc(-c6cnc7[nH]cc(C(=O)c8c(F)ccc(NS(=O)(=O)N9CC[C@@H](F)C9)c8F)c7c6)cc4)C5)ccc3C2=O)C(=O)N1 [Compound 39, (3R)-N-{3-[5-(4-{6-[(2E)-3-{2-[(3R)-2,6-dioxopiperidin-3-yl]-1-oxo-2,3-dihydro-1H-isoindol-5-yl}prop-2-en-1-yl]-2,6-diazaspiro[3.3]heptan-2-yl}phenyl)-1H-pyrrolo[2,3-b]pyridine-3-carbonyl]-2,4-difluorophenyl}-3-fluoropyrrolidine-1-sulfonamide] | 5 to 50 | < 1 | 35 to 70 | 35 to 70 | – | –

More lines, main results first:

Row | DC50 (BRAF V600E; [1]) [nM] | DC50 (BRAF G466V; [2]) [nM] | Dmax (BRAF G466V; [3]) [%] | Dmax (BRAF V600E; [4]) [%] | SMILES | DC50 (BRAF V600E; read-out: BRaf V600E DC50; half maximal degradation, T-Rex 293 HA-BRAF V600E) [nM] | DC50 (BRAF G466V; read-out: BRaf G466V DC50; half maximal degradation, T-Rex 293 HA-BRAF G466V) [nM]
7 | < 5 | 1 to 10 | 35 to 70 | 35 to 70 | O=C1CCC(N2Cc3cc(C(O)CN4CCN(c5ccc(-c6cnc7[nH]cc(C(=O)c8c(F)ccc(NS(=O)(=O)N9CC[C@@H](F)C9)c8F)c7c6)cc5)CC4)ccc3C2=O)C(=O)N1 (stereo partly drawn) [Compound 32, (3R)-N-(3-{5-[4-(4-{2-[2-(2,6-dioxopiperidin-3-yl)-1-oxo-2,3-dihydro-1H-isoindol-5-yl]-2-hydroxyethyl}piperazin-1-yl)phenyl]-1H-pyrrolo[2,3-b]pyridin-3-carbonyl}-2,4-difluorophenyl)-3-fluoropyrrolidine-1-sulfonamide] | – | –
8 | 50 to 500 | 1 to 10 | 35 to 70 | 35 to 70 | O=C1CC[C@H](N2Cc3cc(N4CCC(OC5CCN(c6ccc(-c7cnc8[nH]cc(C(=O)c9c(F)ccc(NS(=O)(=O)N%10CC[C@@H](F)C%10)c9F)c8c7)cc6)CC5)CC4)ccc3C2=O)C(=O)N1 [Compound 34, (3R)-N-{3-[5-(4-{4-[(1-{2-[(3S)-2,6-dioxopiperidin-3-yl]-1-oxo-2,3-dihydro-1H-isoindol-5-yl}piperidin-4-yl)oxy]piperidin-1-yl}phenyl)-1H-pyrrolo [2,3-b]pyridine-3-carbonyl]-2,4-difluorophenyl}-3-fluoropyrrolidine-1-sulfonamide] | – | –
9 | 5 to 50 | 1 to 10 | > 70 | 35 to 70 | O=C1CC[C@@H](N2Cc3cc(N4CCC(OC5CCN(c6ccc(-c7cnc8[nH]cc(C(=O)c9c(F)ccc(NS(=O)(=O)N%10CC[C@@H](F)C%10)c9F)c8c7)cc6)CC5)CC4)ccc3C2=O)C(=O)N1 [Compound 35, (3R)-N-{3-[5-(4-{4-[(1-{2-[(3R)-2,6-dioxopiperidin-3-yl]-1-oxo-2,3-dihydro-1H-isoindol-5-yl}piperidin-4-yl)oxy]piperidin-1-yl}phenyl)-1H-pyrrolo [2,3-b]pyridine-3-carbonyl]-2,4-difluorophenyl}-3-fluoropyrrolidine-1-sulfonamide] | – | –
10 | 5 to 50 | 1 to 10 | 35 to 70 | < 35 | O=C1CC[C@@H](NC(=O)c2ccc(N3CC4(CN(CC5CCN(c6ccc(-c7cnc8[nH]cc(C(=O)c9c(F)ccc(NS(=O)(=O)N%10CC[C@@H](F)C%10)c9F)c8c7)cc6)CC5)C4)C3)cc2F)C(=O)N1 [Compound 37, 4-(6-{[1-(4-{3-[2,6-difluoro-3-({[(3R)-3-fluoropyrrolidin-1-yl]sulfonyl}amino)benzoyl]-1H-pyrrolo[2,3-b]pyridin-5-yl}phenyl)piperidin-4-yl]methyl}-2,6-diazaspiro[3.3]heptan-2-yl)-N-[(3R)-2,6-dioxopiperidin-3-yl]-2-fluorobenzamide] | – | –
11 | 5 to 50 | 1 to 10 | 35 to 70 | 35 to 70 | O=C1CC[C@H](N2Cc3cc(N4CCC(CN5CCN(c6ccc(-c7cnc8[nH]cc(C(=O)c9c(F)ccc(NS(=O)(=O)N%10CC[C@@H](F)C%10)c9F)c8c7)cc6)CC5)CC4)c(F)cc3C2=O)C(=O)N1 [Compound 40, (3R)-N-{3-[5-(4-{4-[(1-{2-[(3S)-2,6-dioxopiperidin-3-yl]-6-fluoro-1-oxo-2,3-dihydro-1H-isoindol-5-yl}piperidin-4-yl)methyl]piperazin-1-yl}phenyl)-1H-pyrrolo[2,3-b]pyridine-3-carbonyl]-2,4-difluorophenyl}-3-fluoropyrrolidine-1-sulfonamide] | – | –
12 | > 500 | 1 to 10 | 35 to 70 | > 70 | O=C1CC[C@@H](N2Cc3cc(N4CCC(CN5CCN(c6ccc(-c7cnc8[nH]cc(C(=O)c9c(F)ccc(NS(=O)(=O)N%10CC[C@@H](F)C%10)c9F)c8c7)cc6)CC5)CC4)c(F)cc3C2=O)C(=O)N1 [Compound 41, (3R)-N-{3-[5-(4-{4-[(1-{2-[(3R)-2,6-dioxopiperidin-3-yl]-6-fluoro-1-oxo-2,3-dihydro-1H-isoindol-5-yl}piperidin-4-yl)methyl]piperazin-1-yl}phenyl)-1H-pyrrolo[2,3-b]pyridine-3-carbonyl]-2,4-difluorophenyl}-3-fluoropyrrolidine-1-sulfonamide] | – | –
13 | 5 to 50 | 1 to 10 | 35 to 70 | 35 to 70 | O=C1CCC(N2Cc3cc(N4CC5(CN(CC#Cc6ccc(-c7cnc8[nH]cc(C(=O)c9c(F)ccc(NS(=O)(=O)N%10CC[C@@H](F)C%10)c9F)c8c7)cc6)C5)C4)ccc3C2=O)C(=O)N1 (stereo partly drawn) [Compound 42, (3R)-N-(3-{5-[4-(3-{6-[2-(2,6-dioxopiperidin-3-yl)-1-oxo-2,3-dihydro-1H-isoindol-5-yl]-2,6-diazaspiro[3.3]heptan-2-yl}prop-1-yn-1-yl)phenyl]-1H-pyrrolo [2,3-b]pyridine-3-carbonyl}-2,4-difluorophenyl)-3-fluoropyrrolidine-1-sulfonamide] | – | –
14 | 50 to 500 | 10 to 30 | 35 to 70 | 35 to 70 | O=C1CCC(N2Cc3cc(OC4CC5(C4)CN(c4ccc(-c6cnc7[nH]cc(C(=O)c8c(F)ccc(NS(=O)(=O)N9CC[C@@H](F)C9)c8F)c7c6)cc4)C5)ccc3C2=O)C(=O)N1 (stereo partly drawn) [Compound 43, (3R)-N-(3-{5-[4-(6-{[2-(2,6-dioxopiperidin-3-yl)-1-oxo-2,3-dihydro-1H-isoindol-5-yl]oxy}-2-azaspiro[3.3]heptan-2-yl)phenyl]-1H-pyrrolo[2,3-b]pyridine-3-carbonyl}-2,4-difluorophenyl)-3-fluoropyrrolidine-1-sulfonamide] | – | –
